Entries after “also recorded” stand apart in the source; their conditions may differ.
How the values were obtained:
[1] = test system: THR (liver Cpt1a, Dio1, Me1, Thrsp RNA); experiment: High-fat diet fed rat study: liver gene expression; assay type: in vivo; conditions: HFD rats
Description: (§1) Eighty-four male Sprague Dawley rats, approximately 8 to 11 weeks of age, were fed with either a normal diet, ND (D12450K: 10 kcal% fat, no sucrose), or high-fat diet, HFD (D12109C: 40 kcal% fat, 1.25 gm% cholesterol, 0.5 gm% sodium cholate, 12.5 gm% sucrose). After 12 days of diet consumption, baseline serum total cholesterol and low-density lipoprotein cholesterol (LDL-C) levels were measured with the cobas 6000 c501 Chemistry Analyzer (Roche) to confirm hypercholesterolemia in the HFD fed rats. Animals were then randomized into treatment groups.
(§2) Serum total cholesterol and LDL-C levels were determined as described above. […] Caudate lobes of the liver were used for analysis of hepatic total cholesterol (Abcam, ab65390) and triglyceride levels (Abcam, ab65336) via enzyme-linked immunosorbent assay. Right lateral lobes were stored in RNAlater (Invitrogen, AM7020) at -70°C until homogenization with the Scientz-48 TissueLyser LT for downstream gene expression analysis. RNA extraction was performed at WuXi AppTec (Hong Kong) Limited (China) with the RNeasy Mini Kit (Qiagen, 74106) and RNA concentration and quality was determined using the Nanodrop 2000 (Thermo Scientific); additional quality control was assessed with agarose gel electrophoresis. One μg total RNA from each sample was then reverse-transcribed using the High Capacity cDNA Reverse Transcription kit (Applied Biosystems, 4368814) and the resulting cDNA was diluted 1:5 with nuclease-free, distilled water. Gene expression was measured using TaqMan Fast Advanced Master Mix and the following TaqMan Gene Expression assays: Actb (Rn00667869_m1), Cpt1a (Rn00580702_m1), Dio1 (Rn00572183_m1), Me1 (Rn00561502_m1), Rplp1 (Rn03467157_gH), and Thrsp (Rn01511034_m1). Actb and Rplp1 served as control housekeeping genes. Ten μL reactions were run on the qTOWER³ 84. Relative quantification (RQ) of gene expression was calculated via the 2^−ΔΔCt method and statistical analysis was performed in GraphPad Prism 8.0 and Microsoft Excel.

[2] = test system: hepatic OATP1B1/B3 transporters; parameters: method as in PMID 19785645; conditions: cited from earlier work
[3] = test system: HFD fed rats; experiment: High-fat diet fed rat study: serum and hepatic lipid levels; assay type: in vivo
Description: Animals were purchased from Vital River Laboratory Animal Technology Co. Ltd. and experiments were conducted at Covance Pharmaceutical R&D (Shanghai) Co., Ltd. (China). Animals were group-housed in polycarbonate cages with corncob bedding under controlled temperature (21–25°C), humidity (40–70%), and a 12-hr light/dark cycle. All procedures performed were in compliance with local animal welfare legislation, Covance global policies and procedures, and the Guide for the Care and Use of Laboratory Animals.
as §1
as §2, with “Twenty-four hrs after dosing, animals were euthanized by CO2 inhalation and serum and plasma were collected along with liver tissue. Serum” for “Serum”

[4] = 4 hrs after 5.0 or 1.5 mg/kg, vs vehicle
[5] = 0.5 mg/kg P.O. single dose, 24 hrs
[6] = 5.0 and 1.5 mg/kg P.O. single dose, 24 hrs post-dose

With CC(C)c1cc(Oc2c(Cl)cc(-n3nc(C#N)c(=O)[nH]c3=O)cc2Cl)n[nH]c1=O [MGL-3196, 2-[3,5-dichloro-4-(5-isopropyl-6-oxo-1,6-dihydropyridazin-3-yloxy)phenyl]-3,5-dioxo-2,3,4,5-tetrahydro[1,2,4]triazine-6-carbonitrile] the “liver Cpt1a, Dio1 and Thrsp RNA levels” value [1, 4] was “activated the transcription of Cpt1a, Dio1, and Thrsp in a dose-dependent manner”, the “liver Me1 RNA level” value [1, 4] was “no significant increase” and the “increases in liver Cpt1a and Thrsp RNA levels” value ([1]; 24 hrs after 5.0 or 1.5 mg/kg) was “dampened”. For the same compound, the “liver Dio1 and Me1 transcription” value ([1]; 24 hrs after 5.0 or 1.5 mg/kg, vs vehicle) was “significantly increased”, the “increase in liver Dio1 expression between doses” value ([1]; between 1.5 and 5 mg/kg) was 1.3 fold and the transporter substrate [2] was “substrate”. For the same compound, the “effect on serum LDL-C” value [3, 5] was “did not significantly lower”, the “effect on serum total cholesterol” value [3, 5] was “no significant effect; also recorded: did not significantly lower” and the “effect on serum triglyceride levels” value [3, 5] was “did not have a significant effect; also recorded: did not significantly lower”. For the same compound, the “decrease in serum triglyceride levels (pre-dose vs 24 hrs post-dose)” value ([3]; 1.5 mg/kg P.O. single dose) was 37.5%, the “decrease in serum total cholesterol (pre-dose vs 24 hrs post-dose)” value ([3]; 5 mg/kg P.O. single dose) was 33.6% and the “decrease in serum triglyceride levels (pre-dose vs 24 hrs post-dose)” value ([3]; 5.0 mg/kg P.O. single dose) was 32.1%. The “effect on hepatic cholesterol levels” value [3, 6] was “did not significantly affect” and the “effect on hepatic triglyceride levels” value [3, 6] was “did not significantly affect”.

— publication PMC7732128, “Regulation of gene transcription by thyroid hormone receptor β agonists in clinical development for the treatment of non-alcoholic steatohepatitis (NASH)” (PLoS ONE, 2020)
